{"source": "patent US20080014614A1", "about": "“Labeling of rapamycin using rapamycin-specific methylases” (Wyeth, priority 2004, published 2008)", "test_system": "RapM methylase", "experiment": "In vitro methylation of desmethyl-rapamycin substrates by recombinant RapM methylase crude extract, HPLC analysis", "type": "biochemical, Streptomyces hygroscopicus", "details": "recombinant E. coli cell extract, SAM as methyl donor, phosphate buffer pH 7.5, HPLC chromatograms", "description": "The RapI, RapM and RapQ proteins were then expressed in E. coli strain BL21(DE3) cells using the Novagen pET24 inducible plasmid expression vector. In this vector, cloned genes are expressed from a T7 promoter by T7 RNA polymerase, and expression is activated by IPTG addition.\nFor crude extracts of the cloned methylase proteins, 25 mL cultures of induced cells were collected by centrifugation and the pellets frozen. The pellets were resuspended in 10 mL 50 mM potassium phosphate buffer, pH 7.5, containing 1 mM β-mercaptoethanol. Thereafter, lysozyme was added to a final concentration of 100 μg/ml and Benzonase™ nuclease was added (1 μL/mL cells). Cells were sonicated for 1 to 2 min on ice and cell debris was removed by centrifugation at ˜30,000×g, 4° C. for 15 min. Supernatants were adjusted to ˜10% glycerol prior to freezing at −70° C.\nApproximately 65 μL of crude methylase extract was added to a reaction containing 3 μL of 1 mg/mL 7-desmethyl- rapamycin (7-dmr) solution, 5 μL of 4 mM SAM, 4 μL of 0.1 M MgSO4, and 23 μL of a 0.5 M phosphate buffer, adjusted to pH 7.5. Methylation reactions using the recombinant cell extracts were carried out as described above, except that 50 μL of extract and 38 μL of buffer were used."}
{"compound": "32-O-desmethyl-rapamycin [32-dmr]", "values": [{"measurement": "Conversion of the desmethyl-rapamycin substrate to rapamycin by RapM methylase (substrate specificity)", "value": "did not modify"}]}
{"compound": "CO[C@@H]1C[C@H](C[C@@H](C)[C@@H]2CC(=O)[C@H](C)/C=C(\\C)[C@@H](O)[C@@H](OC)C(=O)[C@H](C)C[C@H](C)\\C=C/C=C/C=C(\\C)[C@@H](O)C[C@@H]3CC[C@@H](C)[C@@](O)(O3)C(=O)C(=O)N3CCCC[C@H]3C(=O)O2)CC[C@H]1O", "note": "[7-dmr, 7-O-desmethyl-rapamycin]", "values": [{"measurement": "Conversion of the desmethyl-rapamycin substrate to rapamycin by RapM methylase (substrate specificity)", "value": "generated rapamycin"}]}
